Key:
[1] = molecular target: BTK C481S; settings: average of literature values; read-out: average published Kd for BTK C481S; cited from earlier work
[2] = molecular target: ERBB2 (Homo sapiens, UniProt P04626); assay: scanMAX binding POC, ERBB2; settings: 1 μM
[3] = molecular target: T1, JAK3 (JH1 catalytic domain) (Homo sapiens, UniProt P52333); assay: scanMAX binding POC, JAK3; settings: 1 μM
T1 construct: The JAK3 POC is for its JH1 catalytic domain

[4] = system: patients with CLL; design: method as in NCT02477696; settings: phase III, P = 0.02, ref NCT02477696; cited from earlier work
[5] = molecular target: T2, ITK (Homo sapiens, UniProt Q08881); assay: scanMAX binding POC, ITK; settings: 1 μM
T2 sequence (Q08881 1-620): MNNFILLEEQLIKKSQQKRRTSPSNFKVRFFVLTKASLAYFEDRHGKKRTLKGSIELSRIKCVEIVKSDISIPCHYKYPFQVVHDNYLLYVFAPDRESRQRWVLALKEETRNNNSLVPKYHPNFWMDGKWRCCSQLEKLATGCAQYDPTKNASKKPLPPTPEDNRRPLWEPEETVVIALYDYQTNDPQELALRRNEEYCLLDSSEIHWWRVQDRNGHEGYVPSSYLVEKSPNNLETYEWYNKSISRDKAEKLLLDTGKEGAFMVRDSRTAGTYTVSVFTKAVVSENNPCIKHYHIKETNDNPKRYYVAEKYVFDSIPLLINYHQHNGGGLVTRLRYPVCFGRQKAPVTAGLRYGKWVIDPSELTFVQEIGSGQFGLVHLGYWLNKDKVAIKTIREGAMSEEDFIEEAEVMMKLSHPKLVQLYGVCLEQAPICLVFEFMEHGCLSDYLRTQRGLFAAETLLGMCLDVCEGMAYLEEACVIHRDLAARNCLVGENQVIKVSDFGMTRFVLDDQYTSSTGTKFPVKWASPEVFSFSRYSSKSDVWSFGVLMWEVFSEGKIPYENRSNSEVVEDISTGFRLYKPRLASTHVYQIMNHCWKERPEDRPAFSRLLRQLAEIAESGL
Source text: (§1) Comprehensive Characterization of Bruton’s Tyrosine Kinase Inhibitor Specificity, Potency, and
(§2) Biological Effects: Insights into Covalent and Non-Covalent Mechanistic Signatures
(§3) Antonia C. Darragh1, Andrew M. Hanna1, Justin H. Lipner2, Alastair J. King2, Nicole B. Servant1, Mirza Jahic1*
(§4) *To whom correspondence should be addressed: Mirza Jahic, e-mail address: Mirza.Jahic@discovery.eurofinsus.com
(§5) Supporting Table S1. Comparison of BTK inhibitor specificity to TEC family members. TEC family members are
(§6) Burton’s tyrosine kinase (BTK), tyrosine kinase expressed in hepatocellular carcinoma (TEC), bone marrow-
(§7) expressed kinase (BMX/ETK), and T cell-expressed kinase (TXK/RLK), and interleukin-2-inducible T cell kinase
(§8) A zero POC signifies that the compound

[6] = molecular target: T3, TEC (Homo sapiens, UniProt P42680); assay: scanMAX binding POC, TEC; settings: 1 μM
T3 sequence (P42680 1-631): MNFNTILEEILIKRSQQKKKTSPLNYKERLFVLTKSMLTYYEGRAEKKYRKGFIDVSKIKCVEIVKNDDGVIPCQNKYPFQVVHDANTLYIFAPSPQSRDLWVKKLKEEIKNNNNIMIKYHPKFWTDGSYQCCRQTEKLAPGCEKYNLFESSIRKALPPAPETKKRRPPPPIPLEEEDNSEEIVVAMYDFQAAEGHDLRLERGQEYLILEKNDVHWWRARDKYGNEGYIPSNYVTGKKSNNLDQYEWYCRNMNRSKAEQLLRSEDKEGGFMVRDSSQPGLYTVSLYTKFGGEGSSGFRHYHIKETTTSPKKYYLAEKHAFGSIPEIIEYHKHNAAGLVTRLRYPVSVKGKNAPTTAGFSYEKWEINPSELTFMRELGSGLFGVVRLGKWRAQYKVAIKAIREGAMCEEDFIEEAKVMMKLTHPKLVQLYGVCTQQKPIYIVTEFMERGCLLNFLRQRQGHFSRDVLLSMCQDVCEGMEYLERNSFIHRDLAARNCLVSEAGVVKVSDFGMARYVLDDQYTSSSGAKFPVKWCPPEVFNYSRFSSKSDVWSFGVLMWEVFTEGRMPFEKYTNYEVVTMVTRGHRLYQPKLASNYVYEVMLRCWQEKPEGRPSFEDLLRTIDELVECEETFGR
Source text: as §1, §2, §3, §4, §5, §6, §7, §8

[7] = molecular target: T4, TXK (Homo sapiens, UniProt P42681); assay: scanMAX binding POC, TXK; settings: 1 μM
T4 sequence (P42681 1-527): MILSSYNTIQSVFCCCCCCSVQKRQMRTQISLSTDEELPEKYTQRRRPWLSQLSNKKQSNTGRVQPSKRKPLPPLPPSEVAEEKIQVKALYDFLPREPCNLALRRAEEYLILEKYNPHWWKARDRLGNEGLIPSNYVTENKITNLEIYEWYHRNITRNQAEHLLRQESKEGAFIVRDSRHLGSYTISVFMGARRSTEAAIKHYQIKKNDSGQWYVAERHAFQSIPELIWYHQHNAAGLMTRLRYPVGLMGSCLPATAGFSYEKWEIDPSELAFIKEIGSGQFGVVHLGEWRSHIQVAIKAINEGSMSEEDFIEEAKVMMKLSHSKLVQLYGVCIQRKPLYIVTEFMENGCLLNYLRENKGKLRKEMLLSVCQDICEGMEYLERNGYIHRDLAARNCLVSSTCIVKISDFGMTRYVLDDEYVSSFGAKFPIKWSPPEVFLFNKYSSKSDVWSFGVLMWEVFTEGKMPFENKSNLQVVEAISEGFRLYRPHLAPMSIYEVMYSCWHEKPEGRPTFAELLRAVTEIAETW
Source text: as §1, §2, §3, §4, §5, §6, §7, §8

[8] = system: BTK; settings: cited from earlier work
[9] = molecular target: T5, MKK7 (Homo sapiens, UniProt O14733); assay: scanMAX binding POC, MKK7; settings: 1 μM
T5 sequence (O14733 1-419): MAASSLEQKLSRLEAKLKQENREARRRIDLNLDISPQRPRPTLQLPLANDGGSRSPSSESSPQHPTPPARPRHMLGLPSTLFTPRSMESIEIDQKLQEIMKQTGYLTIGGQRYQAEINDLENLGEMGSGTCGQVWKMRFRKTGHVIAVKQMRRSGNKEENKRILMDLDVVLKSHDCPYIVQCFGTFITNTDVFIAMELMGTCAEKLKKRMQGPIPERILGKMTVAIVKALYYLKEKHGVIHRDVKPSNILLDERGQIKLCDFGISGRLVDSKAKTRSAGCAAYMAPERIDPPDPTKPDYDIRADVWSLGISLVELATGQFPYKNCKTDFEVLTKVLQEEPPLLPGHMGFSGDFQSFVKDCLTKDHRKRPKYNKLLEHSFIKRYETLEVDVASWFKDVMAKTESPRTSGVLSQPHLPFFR

[10] = molecular target: JNK2 (MAPK9) (Homo sapiens, UniProt P45984); assay: scanMAX binding POC, JNK2; settings: 1 μM
JNK2 (MAPK9), sequence (P45984 whole entry): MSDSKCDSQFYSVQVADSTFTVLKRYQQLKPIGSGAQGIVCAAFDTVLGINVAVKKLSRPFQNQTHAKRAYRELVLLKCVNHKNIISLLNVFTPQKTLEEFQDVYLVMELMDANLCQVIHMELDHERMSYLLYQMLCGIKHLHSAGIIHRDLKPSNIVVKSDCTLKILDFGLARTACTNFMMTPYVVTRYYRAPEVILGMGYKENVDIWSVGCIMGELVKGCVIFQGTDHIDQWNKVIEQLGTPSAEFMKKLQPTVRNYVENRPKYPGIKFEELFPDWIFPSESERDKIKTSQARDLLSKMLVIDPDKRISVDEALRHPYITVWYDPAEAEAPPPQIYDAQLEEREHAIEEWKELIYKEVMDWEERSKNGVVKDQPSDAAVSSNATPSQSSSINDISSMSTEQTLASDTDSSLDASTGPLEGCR

[11] = molecular target: EGFR (Homo sapiens, UniProt P00533); assay: scanMAX binding POC, EGFR; settings: 1 μM
EGFR, sequence (P00533 25-1210): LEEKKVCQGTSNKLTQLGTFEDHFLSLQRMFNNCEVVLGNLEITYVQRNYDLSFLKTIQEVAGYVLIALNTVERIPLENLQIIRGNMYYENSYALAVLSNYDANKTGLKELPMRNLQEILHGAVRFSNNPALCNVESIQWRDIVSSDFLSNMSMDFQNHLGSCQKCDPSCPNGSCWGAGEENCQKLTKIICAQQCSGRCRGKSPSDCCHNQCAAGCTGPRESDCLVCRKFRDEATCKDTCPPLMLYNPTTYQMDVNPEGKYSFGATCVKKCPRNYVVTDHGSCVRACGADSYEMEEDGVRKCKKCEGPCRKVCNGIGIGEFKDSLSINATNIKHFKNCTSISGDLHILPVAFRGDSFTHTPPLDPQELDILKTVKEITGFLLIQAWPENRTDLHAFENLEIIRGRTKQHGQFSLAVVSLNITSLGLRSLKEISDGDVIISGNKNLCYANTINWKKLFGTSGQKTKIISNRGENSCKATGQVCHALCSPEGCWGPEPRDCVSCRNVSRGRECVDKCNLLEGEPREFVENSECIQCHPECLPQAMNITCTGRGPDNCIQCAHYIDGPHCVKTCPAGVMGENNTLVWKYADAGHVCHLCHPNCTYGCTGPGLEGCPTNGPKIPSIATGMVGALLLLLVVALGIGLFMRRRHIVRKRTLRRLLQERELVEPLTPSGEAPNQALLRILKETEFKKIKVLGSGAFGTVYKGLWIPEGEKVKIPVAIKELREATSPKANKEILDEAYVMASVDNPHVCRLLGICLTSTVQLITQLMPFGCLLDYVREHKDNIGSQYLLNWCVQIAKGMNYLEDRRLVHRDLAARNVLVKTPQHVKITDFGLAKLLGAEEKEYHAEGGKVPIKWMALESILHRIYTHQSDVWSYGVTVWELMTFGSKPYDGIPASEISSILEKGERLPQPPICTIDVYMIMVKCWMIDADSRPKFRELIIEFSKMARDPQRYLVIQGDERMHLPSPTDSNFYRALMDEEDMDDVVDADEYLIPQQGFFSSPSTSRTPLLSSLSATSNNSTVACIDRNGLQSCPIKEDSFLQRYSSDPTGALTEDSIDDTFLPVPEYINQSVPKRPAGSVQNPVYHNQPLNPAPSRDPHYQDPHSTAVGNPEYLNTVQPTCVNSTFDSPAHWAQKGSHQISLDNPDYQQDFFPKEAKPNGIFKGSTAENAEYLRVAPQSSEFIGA

[12] = molecular target: ERBB4 (Homo sapiens, UniProt Q15303); assay: scanMAX binding POC, ERBB4; settings: 1 μM
ERBB4, sequence (Q15303 26-1308): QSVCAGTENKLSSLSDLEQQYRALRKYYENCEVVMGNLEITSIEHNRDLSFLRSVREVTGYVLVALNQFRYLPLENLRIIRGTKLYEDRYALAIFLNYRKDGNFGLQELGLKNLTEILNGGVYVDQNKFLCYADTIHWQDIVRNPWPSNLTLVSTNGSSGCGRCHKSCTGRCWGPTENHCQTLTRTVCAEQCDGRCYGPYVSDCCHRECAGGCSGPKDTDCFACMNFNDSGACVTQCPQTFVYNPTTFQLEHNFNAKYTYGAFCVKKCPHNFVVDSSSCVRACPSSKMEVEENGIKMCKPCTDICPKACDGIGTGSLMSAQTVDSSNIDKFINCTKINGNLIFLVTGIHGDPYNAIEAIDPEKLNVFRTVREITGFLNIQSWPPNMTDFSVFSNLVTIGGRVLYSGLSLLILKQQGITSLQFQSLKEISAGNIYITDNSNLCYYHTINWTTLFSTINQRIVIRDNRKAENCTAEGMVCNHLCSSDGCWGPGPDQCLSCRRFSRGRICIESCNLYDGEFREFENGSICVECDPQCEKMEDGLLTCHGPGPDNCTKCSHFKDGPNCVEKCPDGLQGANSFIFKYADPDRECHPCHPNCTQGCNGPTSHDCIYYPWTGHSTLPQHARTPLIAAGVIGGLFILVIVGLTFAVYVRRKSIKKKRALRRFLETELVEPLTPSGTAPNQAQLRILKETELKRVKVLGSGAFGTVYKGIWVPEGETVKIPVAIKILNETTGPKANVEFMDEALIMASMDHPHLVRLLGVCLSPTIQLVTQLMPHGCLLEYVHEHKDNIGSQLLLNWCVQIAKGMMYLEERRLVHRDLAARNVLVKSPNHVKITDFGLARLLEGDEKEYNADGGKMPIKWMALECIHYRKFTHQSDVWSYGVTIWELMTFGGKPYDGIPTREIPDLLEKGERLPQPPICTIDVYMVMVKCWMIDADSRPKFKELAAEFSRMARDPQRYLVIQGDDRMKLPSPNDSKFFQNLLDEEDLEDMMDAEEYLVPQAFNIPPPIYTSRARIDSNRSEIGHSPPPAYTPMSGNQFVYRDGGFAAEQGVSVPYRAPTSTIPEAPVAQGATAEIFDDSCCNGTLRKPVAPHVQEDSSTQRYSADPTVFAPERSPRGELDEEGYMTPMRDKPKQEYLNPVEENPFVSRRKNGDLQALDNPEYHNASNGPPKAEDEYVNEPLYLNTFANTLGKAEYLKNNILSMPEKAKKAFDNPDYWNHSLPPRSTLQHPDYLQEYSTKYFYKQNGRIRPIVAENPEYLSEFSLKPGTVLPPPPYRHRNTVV

[13] = molecular target: JNK1 (MAPK8) (Homo sapiens, UniProt P45983); assay: scanMAX binding POC, JNK1; settings: 1 μM
JNK1 (MAPK8), sequence (P45983 whole entry): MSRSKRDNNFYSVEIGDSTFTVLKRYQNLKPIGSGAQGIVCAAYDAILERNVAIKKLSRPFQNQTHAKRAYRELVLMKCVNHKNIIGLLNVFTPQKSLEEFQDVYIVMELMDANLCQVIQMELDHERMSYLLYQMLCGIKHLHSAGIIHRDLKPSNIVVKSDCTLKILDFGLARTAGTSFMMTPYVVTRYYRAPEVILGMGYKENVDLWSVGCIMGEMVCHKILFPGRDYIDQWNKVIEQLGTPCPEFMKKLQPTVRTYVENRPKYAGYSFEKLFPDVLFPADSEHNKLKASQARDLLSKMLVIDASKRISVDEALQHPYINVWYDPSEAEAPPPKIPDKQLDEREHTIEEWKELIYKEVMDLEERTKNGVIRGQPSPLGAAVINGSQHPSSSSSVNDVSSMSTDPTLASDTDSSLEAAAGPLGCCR

[14] = molecular target: ERBB3 (Homo sapiens, UniProt P21860); assay: scanMAX binding POC, ERBB3; settings: 1 μM
[15] = molecular target: JNK3 (MAPK10) (Homo sapiens, UniProt P53779); assay: scanMAX binding POC, JNK3; settings: 1 μM
[16] = molecular target: T6, BTK (Homo sapiens, UniProt Q06187); assay: scanMAX binding POC, BTK; settings: 1 μM; zero POC = competition comparable to positive control
T6 construct: host or cells: transiently transfected HEK293 cells
Source text: as §1, §2, §3, §4, §5, §6, §7, §8

[17] = molecular target: BLK (Homo sapiens, UniProt P51451); assay: scanMAX binding POC, BLK; settings: 1 μM
BLK, sequence (P51451 whole entry): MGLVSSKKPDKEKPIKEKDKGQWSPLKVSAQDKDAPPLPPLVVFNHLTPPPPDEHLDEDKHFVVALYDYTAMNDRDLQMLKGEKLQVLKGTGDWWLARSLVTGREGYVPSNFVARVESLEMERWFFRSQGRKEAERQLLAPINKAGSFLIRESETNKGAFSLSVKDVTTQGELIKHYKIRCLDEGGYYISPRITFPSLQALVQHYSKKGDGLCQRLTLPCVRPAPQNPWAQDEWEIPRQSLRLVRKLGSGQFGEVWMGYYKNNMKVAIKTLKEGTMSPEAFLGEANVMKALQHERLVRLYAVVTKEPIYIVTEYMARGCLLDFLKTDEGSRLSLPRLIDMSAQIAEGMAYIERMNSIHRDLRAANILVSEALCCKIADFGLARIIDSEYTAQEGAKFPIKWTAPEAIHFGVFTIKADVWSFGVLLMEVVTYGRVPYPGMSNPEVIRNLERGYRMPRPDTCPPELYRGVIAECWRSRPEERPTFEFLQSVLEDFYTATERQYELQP

[18] = system: BTK C481S; settings: read-out: average published IC50 for BTK C481S; cited from earlier work
[19] = system: R/R PCNSL lymphoma patients; settings: three-year follow-up; cited from earlier work
[20] = system: relapsed/refractory (R/R) CLL and small lymphocytic lymphoma (SLL); design: method as in NCT03734016; settings: cited from earlier work

ERBB2, sequence (P04626 23-1255): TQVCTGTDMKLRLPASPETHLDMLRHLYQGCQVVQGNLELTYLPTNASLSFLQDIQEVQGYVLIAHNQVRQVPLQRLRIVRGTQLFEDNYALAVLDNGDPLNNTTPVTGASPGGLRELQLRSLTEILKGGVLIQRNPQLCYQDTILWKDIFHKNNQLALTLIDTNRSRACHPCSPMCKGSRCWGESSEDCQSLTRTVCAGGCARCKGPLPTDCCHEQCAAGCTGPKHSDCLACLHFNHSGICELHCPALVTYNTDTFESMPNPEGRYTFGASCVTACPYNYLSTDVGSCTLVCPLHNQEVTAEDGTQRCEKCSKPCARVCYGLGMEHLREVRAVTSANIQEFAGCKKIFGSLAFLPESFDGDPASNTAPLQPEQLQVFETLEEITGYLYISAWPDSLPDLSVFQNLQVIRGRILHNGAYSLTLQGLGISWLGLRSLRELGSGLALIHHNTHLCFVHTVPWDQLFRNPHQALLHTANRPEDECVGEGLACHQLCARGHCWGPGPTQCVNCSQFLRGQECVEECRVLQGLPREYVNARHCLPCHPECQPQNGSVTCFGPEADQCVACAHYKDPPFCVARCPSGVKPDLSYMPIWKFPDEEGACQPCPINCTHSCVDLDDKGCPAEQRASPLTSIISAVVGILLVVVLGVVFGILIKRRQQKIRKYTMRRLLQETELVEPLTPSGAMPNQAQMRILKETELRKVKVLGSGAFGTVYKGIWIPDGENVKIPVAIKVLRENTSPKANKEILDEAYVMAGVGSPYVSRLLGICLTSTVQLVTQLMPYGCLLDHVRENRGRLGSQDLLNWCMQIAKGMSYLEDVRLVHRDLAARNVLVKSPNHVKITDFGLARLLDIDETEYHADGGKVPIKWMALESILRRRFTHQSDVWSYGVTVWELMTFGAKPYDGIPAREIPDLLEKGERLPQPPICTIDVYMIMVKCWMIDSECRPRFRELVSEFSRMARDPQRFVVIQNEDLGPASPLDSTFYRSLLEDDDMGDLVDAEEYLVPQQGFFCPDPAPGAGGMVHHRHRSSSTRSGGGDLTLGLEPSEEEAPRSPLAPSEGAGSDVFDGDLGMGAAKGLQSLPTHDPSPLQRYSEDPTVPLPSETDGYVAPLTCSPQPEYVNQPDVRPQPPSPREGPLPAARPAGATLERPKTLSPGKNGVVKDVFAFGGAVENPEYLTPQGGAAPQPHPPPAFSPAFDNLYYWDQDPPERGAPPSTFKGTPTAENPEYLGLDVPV

| JAK3 binding POC [3] | ITK binding POC [5] | JNK3 (MAPK10) POC [15] | SMILES | ERBB2 binding POC [2] | TEC binding POC [6] | TXK binding POC [7] | IC50 [8] [nM] | MKK7 binding POC [9] | JNK2 (MAPK9) POC [10] | EGFR binding POC [11] | ERBB4 binding POC [12] | JNK1 (MAPK8) POC [13] | ERBB3 binding POC [14] | BTK binding POC [16] | BLK binding POC [17] | further results |
| --- | --- | --- | --- | --- | --- | --- | --- | --- | --- | --- | --- | --- | --- | --- | --- | --- |
| 80% of control | 100% of control | 97% of control | CC#CC(=O)N1CCC[C@H]1c1nc(-c2ccc(C(=O)Nc3ccccn3)cc2)c2c(N)nccn12 [Acalabrutinib] | 4.7% of control | 14% of control | 47% of control | […] | 75% of control | 58% of control | 61% of control | 6.9% of control | 93% of control | 64% of control | 0.2% of control | 57% of control | Kd [1]: 358 nM; adverse cardiovascular events [4]: 9.4% |
|  |  |  | C=CC(=O)N1CCC[C@@H](n2nc(-c3ccc(Oc4ccccc4)cc3)c3c(N)ncnc32)C1 [Ibrutinib] | 0.1% of control | 5.9% of control | 0.5% of control | […] | 0.15% of control | 78% of control | 0% of control | 0% of control | 78% of control | 0.15% of control |  | 0.25% of control | IC50 [18]: […] |
| 20% of control | 74% of control | 93% of control | C=CC(=O)N1CCC([C@@H]2CCNc3c(C(N)=O)c(-c4ccc(Oc5ccccc5)cc4)nn32)CC1 [Zanubrutinib] | 7.3% of control | 8.7% of control | 2.2% of control | […] | 55% of control | 95% of control | 0% of control | 0.75% of control | 99% of control | 23% of control |  | 0.3% of control | overall response rate (ORR, partial and complete responses) ([20]; after 15 months, P < 0.001, ref NCT03734016): 78.3%; cardiovascular adverse events ([20]; two-sided P = 0.001, ref NCT03734016): 2.5% |

| SMILES | JAK3 binding POC [3] | ITK binding POC [5] | JNK3 (MAPK10) POC [15] | ERBB2 binding POC [2] | TEC binding POC [6] | TXK binding POC [7] | IC50 [8] [nM] | MKK7 binding POC [9] | JNK2 (MAPK9) POC [10] | EGFR binding POC [11] | ERBB4 binding POC [12] | JNK1 (MAPK8) POC [13] | ERBB3 binding POC [14] | BTK binding POC [16] | BLK binding POC [17] | further results |
| --- | --- | --- | --- | --- | --- | --- | --- | --- | --- | --- | --- | --- | --- | --- | --- | --- |
| CC#CC(=O)N1CC[C@@H](n2c(=O)n(-c3ccc(Oc4ccccc4)cc3)c3c(N)ncnc32)C1 [Tirabrutinib] |  |  | […] | 26% of control | 9.4% of control | 14% of control | […] | 87% of control | 92% of control | 74% of control | 85% of control | 99% of control | 12% of control | 0.35% of control | 14% of control | overall response rate [19]: 63.6% |

— paper PMC11997881, “Comprehensive Characterization of Bruton’s Tyrosine Kinase Inhibitor Specificity, Potency, and Biological Effects: Insights into Covalent and Noncovalent Mechanistic Signatures” (ACS Pharmacology & Translational Science, 2025)
